We go through 36 molecules from US7728146B2, “Enzyme inhibitors” (Probiodrug AG, priority 2006, dated 2010).

For one assay, the target named is DP IV (Homo sapiens, UniProt P27487). Nature of the assay: DP IV inhibition IC50, parallel-synthesis compounds tested directly following synthesis (without purification). It is filed as biochemical. Also on record: IC50 DP4; other: tested directly following parallel synthesis, without purification; compounds of formula (Ib) from parallel synthesis, tested directly following synthesis. The following applies: DP IV inhibition; compounds of formula (Ib) from parallel synthesis, tested directly following synthesis (without purification); read-out: IC50. The procedure: Compounds were immediately tested regarding their activity as DP IV inhibitors.
Substances are screened for inhibition of dipeptidyl peptidase (DP IV) by their ability to inhibit the hydrolysis of the DP IV specific substrate Glycyl-Prolyl-4-Nitroanilide (Gly-Pro-pNA). All compounds are diluted in DMSO and IC50 will be determined with 11 serial dilutions (1:2) starting with an final concentration of 100 μM. The final DMSO concentration in the assay is 5% (v/v). The method was automated using a Tecan Genesis Freedom liquid handler and a Genius Pro (Tecan) microplate reader.
DP IV from porcine kidney (pDP IV) or recombinant human DP IV (rhDP IV) is diluted in HEPES buffer to a final activity of approximately 40-50 μU*ml^−1. The DP IV is stored in a cooling rack (4° C.) on the liquid handler.
The assay may becarried out at room temperature using Freedom liquid handler connected with a Genios Pro microplate reader. Each sample is measured in duplicate. Each sample stock solution is prediluted with DMSO in a ratio of 1:5 in a polypropylen 96-well plate. From this predilution 10 serial (1:2) dilutions in DMSO are prepared. 13.5 μl of the 11 DMSO dilutions and DMSO alone are transferred to the measurement microplate (duplicates) and 86.5 μl water, 100 μl HEPES buffer and 50 μl substrate solution are added to each well. The enzymatic reaction is started by addition of 20 μl enzyme solution to each well, and then the microplate is immediately transferred to the microplate reader.
After short mixing (20 s) the release of 4-Nitroanilin (pNA) is monitored at 405 nm for 30 cycles (approx. 18 min).
Post assay calculations are done by the Magellan (Tecan) and Graphit Software. The linear slopes are calculated for each well and averaged for the duplicates. The residue activities are calculated in relation to a sample containing only solvent instead of inhibitor and expressed in %. Residue activities are plotted against the log of inhibitor concentrations and IC50 is calculated by an 4-parameter fitting ranging from 0 to 100%.
For the molecule `NCCCc1c(-c2ccc(Cl)cc2Cl)ncn1CCc1cccc(Cl)c1` [107b, 3-[3-[2-(3-Chloro-phenyl)-ethyl]-5-(2,4-dichloro-phenyl)-3H-imidazol-4-yl]-propylamine], the 50% inhibitory concentration (IC50) (commonly the midpoint of a concentration-inhibition curve) was 42.4 µM.

For the molecule `C[C@H](N)c1c(-c2ccc(Cl)cc2Cl)ncn1CCc1c[nH]c2ccccc12` [103b, (S)-1-{5-(2,4-Dichloro-phenyl)-3-[2-(1H-indol-3-yl)-ethyl]-3H-imidazol-4-yl}-ethylamine], the IC50 stood at 44.2 µM.

As for `CC(N)c1c(-c2ccc(Cl)cc2Cl)ncn1CCc1ccccn1` (stereo not drawn) [73b, 1-[5-(2,4-Dichloro-phenyl)-3-(2-pyridin-2-yl-ethyl)-3H-imidazol-4-yl]-ethylamine], the IC50 is 38.8 µM.

For `NCc1c(-c2ccc(Cl)cc2Cl)ncn1CC1CCCO1` (stereo not drawn) [Example 17b, C-[5-(2,4-dichloro-phenyl)-3-(tetrahydro-furan-2-ylmethyl)-3H-imidazol-4-yl]-methylamine], the half-maximal inhibitory concentration (IC50) was found to be 1.9 µM.

`NCc1c(-c2ccc(Cl)cc2Cl)ncn1Cc1cc(F)cc(C(F)(F)F)c1` [3b, C-[5-(2,4-Dichloro-phenyl)-3-(3-fluoro-5-trifluoromethyl-benzyl)-3H-imidazol-4-yl]-methylamine]: the IC50 was determined as 2.8 µM.

Turning to `NCc1c(-c2ccc(Cl)cc2Cl)ncn1Cc1ccc(OC(F)(F)F)cc1` [97b, C-[5-(2,4-Dichloro-phenyl)-3-(4-trifluoromethoxy-benzyl)-3H-imidazol-4-yl]-methylamine], the IC50 was found to be 2.8 µM.

For the molecule `C[C@H](N)c1c(-c2ccc(Cl)cc2Cl)ncn1CCc1c[nH]c2cc(F)ccc12` [110b, (S)-1-{5-(2,4-Dichloro-phenyl)-3-[2-(6-fluoro-1H-indol-3-yl)-ethyl]-3H-imidazol-4-yl}-ethylamine], the 50% inhibitory concentration (IC50) was 42.4 µM.

With `NCc1c(-c2ccc(Cl)cc2Cl)ncn1Cc1ccc(Cl)c(Cl)c1` [77b, C-[3-(3,4-Dichloro-benzyl)-5-(2,4-dichloro-phenyl)-3H-imidazol-4-yl]-methylamine], the half-maximal inhibitory concentration (IC50) came to 7.3 µM.

For `CC(C)CCCCCCn1cnc(-c2ccc(Cl)cc2Cl)c1C(C)N` (stereo not drawn) [51b, 1-[5-(2,4-Dichloro-phenyl)-3-(7-methyl-octyl)-3H-imidazol-4-yl]-ethylamine], the IC50 amounted to 37.9 µM.

Consider `CC(O)Cn1cnc(-c2ccc(Cl)cc2Cl)c1CN` (stereo not drawn) [72b, 1-[5-Aminomethyl-4-(2,4-dichloro-phenyl)-imidazol-1-yl]-propan-2-ol], for which the IC50 is 20.8 µM.

Turning to `C[C@H](N)c1c(-c2ccc(Cl)cc2Cl)ncn1CCC(c1ccccc1)c1ccccc1` [88b, (S)-1-[5-(2,4-Dichloro-phenyl)-3-(3,3-diphenyl-propyl)-3H-imidazol-4-yl]-ethylamine], the half-inhibitory concentration (IC50) was determined as 28 µM.

Turning to `NCc1c(-c2ccc(Cl)cc2Cl)ncn1Cc1ccc(Cl)cc1Cl` [93b, C-[3-(2,4-Dichloro-benzyl)-5-(2,4-dichloro-phenyl)-3H-imidazol-4-yl]-methylamine], the IC50 is 35.2 µM.

Regarding `NCc1c(-c2ccc(Cl)cc2Cl)ncn1CCc1ccccc1` [57b, C-[5-(2,4-Dichloro-phenyl)-3-phenethyl-3H-imidazol-4-yl]-methylamine], the IC50 turned out to be 9.1 µM.

Turning to `CC(C)CCn1cnc(-c2ccc(Cl)cc2Cl)c1C(C)N` (stereo not drawn) [44b, 1-[5-(2,4-Dichloro-phenyl)-3-(3-methyl-butyl)-3H-imidazol-4-yl]-ethylamine], the IC50 stood at 40.6 µM.

On to `NCCCc1c(-c2ccc(Cl)cc2Cl)ncn1Cc1cc(Br)ccc1F` [30b, 3-[3-(5-Bromo-2-fluoro-benzyl)-5-(2,4-dichloro-phenyl)-3H-imidazol-4-yl]-propylamine], for which the IC50 was 17.2 µM.

As to `CCNCCn1cnc(-c2ccc(Cl)cc2Cl)c1CN` [69b, {2-[5-Aminomethyl-4-(2,4-dichloro-phenyl)-imidazol-1-yl]-ethyl}-ethyl-amine], the half-maximal inhibitory concentration (IC50) amounted to 19 µM.

For the molecule `NCc1c(-c2ccc(Cl)cc2Cl)ncn1CC(c1ccccc1)c1ccccc1` [31b, C-[5-(2,4-Dichloro-phenyl)-3-(2,2-diphenyl-ethyl)-3H-imidazol-4-yl]-methylamine], the concentration for half-maximal inhibition (IC50) was 45.1 µM.

For `NCc1c(-c2ccc(Cl)cc2Cl)ncn1Cc1ccc(-c2ccccc2)cc1` [75b, C-[3-Biphenyl-4-ylmethyl-5-(2,4-dichloro-phenyl)-3H-imidazol-4-yl]-methylamine], the IC50 came to 23.5 µM.

Staying with this assay, now noted: tested directly following parallel synthesis, without purification; read-out: IC50 DP4.
As to `NCc1c(-c2ccc(F)cc2F)ncn1Cc1ccccc1` [Example 80a, C-[3-Benzyl-5-(2,4-di-fluoro-phenyl)-3H-imid-azol-4-yl]-methyl-amine], the 50% inhibitory concentration (IC50) amounted to 19.9 µM.

With `NCc1c(-c2ccc(F)cc2Cl)ncn1Cc1ccc(F)cc1F` [Example 7a, C-[5-(2-Chloro-4-fluoro-phenyl)-3-(2,4-difluoro-benzyl)-3H-imid-azol-4-yl]-methyl-amine], the IC50 came to 27.1 µM.

On to `NCc1c(-c2ccc(F)cc2F)ncn1Cc1cc(F)ccc1F` [Example 85a, C-[3-(2,5-Difluoro-benzyl)-5-(2,4-difluoro-phenyl)-3H-imid-azol-4-yl]-methyl-amine], for which the IC50 stood at 36.1 µM.

For `CCOc1ccccc1Cn1cnc(-c2ccc(F)cc2F)c1CN` [Example 82a, C-[5-(2,4-Difluoro-phenyl)-3-(2-ethoxy-benzyl)-3H-imid-azol-4-yl]-methyl-amine], the half-maximal inhibitory concentration (IC50) came to 14.5 µM.

With `NCc1c(-c2ccc(F)cc2Cl)ncn1Cc1ccco1` [Example 2a, C-[5-(2-Chloro-4-fluoro-phenyl)-3-furan-2-yl-methyl-3H-imid-azol-4-yl]-methyl-amine], the concentration for half-maximal inhibition (IC50) amounted to 16.3 µM.

Regarding `NCc1c(-c2ccc(F)cc2Cl)ncn1Cc1ccccc1C(F)(F)F` [Example 19a, C-[5-(2-Chloro-4-fluoro-phenyl)-3-(2-tri-fluorometh-yl-benzyl)-3H-imid-azol-4-yl]-methyl-amine], the IC50 is 35.2 µM.

`NCc1c(-c2ccc(Cl)cc2Cl)ncn1Cc1c(Cl)cccc1Cl` [Example 60a, C-[3-(2,6-Dichloro-benzyl)-5-(2,4-dichloro-phenyl)-3H-imid-azol-4-yl]-methyl-amine]: the half-maximal inhibitory concentration (IC50) worked out at 2.8 µM.

As to `Cc1ccc(-c2ncn(Cc3cc(Br)ccc3F)c2CN)c(C)c1` [Example 68a, C-[3-(5-Bro-mo-2-fluoro-benzyl)-5-(2,4-dimethyl-phenyl)-3H-imid-azol-4-yl]-methyl-amine], the half-maximal inhibitory concentration (IC50) came out at 37.9 µM.

Take `NCc1c(-c2ccc(F)cc2F)ncn1Cc1cccc(F)c1` [Example 78a, C-[5-(2,4-Difluoro-phenyl)-3-(3-fluoro-benzyl)-3H-imid-azol-4-yl]-methyl-amine]: the 50% inhibitory concentration (IC50) turned out to be 46 µM.

`COc1cccc(Cn2cnc(-c3ccc(F)cc3F)c2CN)c1` [Example 77a, C-[5-(2,4-Difluoro-phenyl)-3-(3-methoxy-benzyl)-3H-imid-azol-4-yl]-methyl-amine]: the 50% inhibitory concentration (IC50) is 24.4 µM.

Regarding `CCOc1ccccc1Cn1cnc(-c2ccc(C)cc2C)c1CN` [Example 70a, C-[5-(2,4-Dimethyl-phenyl)-3-(2-ethoxy-benzyl)-3H-imid-azol-4-yl]-methyl-amine], the IC50 stood at 16.3 µM.

For the molecule `NCc1c(-c2ccc(F)cc2F)ncn1Cc1ccc(F)cc1` [Example 74a, C-[5-(2,4-Difluoro-phenyl)-3-(4-fluoro-benzyl)-3H-imid-azol-4-yl]-methyl-amine], the concentration for half-maximal inhibition (IC50) came out at 44.2 µM.

As for `NCc1c(-c2ccc(Cl)cc2Cl)ncn1Cc1ccc(Cl)cc1` [Example 54a, C-[3-(4-Chloro-benzyl)-5-(2,4-dichloro-phenyl)-3H-imid-azol-4-yl]-methyl-amine], the IC50 was 1.9 µM.

As to `Cc1ccc(-c2ncn(Cc3ccccc3)c2CN)c(C)c1` [Example 69a, C-[3-Benzyl-5-(2,4-di-methyl-phenyl)-3H-imid-azol-4-yl]-methyl-amine], the concentration for half-maximal inhibition (IC50) was 40.6 µM.

Turning to `NCc1c(-c2ccc(Cl)cc2Cl)ncn1Cc1ccc(F)cc1F` [Example 39a, C-[5-(2,4-Dichloro-phenyl)-3-(2,4-difluoro-benzyl)-3H-imid-azol-4-yl]-methyl-amine], the IC50 is 1 µM.

Take `NCc1c(-c2ccc(Cl)cc2Cl)ncn1Cc1ccco1` [Example 33a, C-[5-(2,4-Dichloro-phenyl)-3-furan-2-ylmethyl-3H-imidazol-4-yl]-methylamine]: the 50% inhibitory concentration (IC50) was 0.1 µM.

Take `NCc1c(-c2ccc(Cl)cc2Cl)ncn1Cc1ccsc1` [Example 43a, C-[5-(2,4-Dichloro-phenyl)-3-thio-phen-3-yl-methyl-3H-imid-azol-4-yl]-methyl-amine]: the IC50 came to 0.1 µM.

On to `NCc1c(-c2ccc(F)cc2F)ncn1Cc1ccc(F)cc1F` [Example 76a, C-[3-(2,4-Difluoro-benzyl)-5-(2,4-difluoro-phenyl)-3H-imid-azol-4-yl]-methyl-amine], for which the concentration for half-maximal inhibition (IC50) came to 40.6 µM.
